Source: ChEMBL document CHEMBL1201862, “PubChem BioAssay data set” (2004)
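A five-concentration, 48-hour dose response in 96-well plates underlies each endpoint, interpolated linearly between surrounding concentrations. GI50 marks 50% less growth.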 The source made the active and inactive calls. Cut-off read from the data, not from the text of the source: active = GI50 up to about 1.1 µM and inactive = higher.

Columns and labels:
Assay in all cases: inhibition of tumour cell growth, NCI panel, 48 h
[1] = test system: HL-60
[2] = test system: SR
[3] = test system: SNB-19
[4] = test system: BT-549
[5] = test system: ACHN
[6] = test system: NCI/ADR-RES
[7] = test system: SK-MEL-2
[8] = test system: COLO 205
[9] = test system: NCI-H23
[10] = test system: MCF7
[11] = test system: MDA-N
[12] = test system: K562
[13] = test system: MOLT-4
[14] = test system: UO-31
[15] = test system: NCI-H226
[16] = test system: A498
[17] = test system: EKVX
[18] = test system: UACC-62
[19] = test system: HOP-62
[20] = test system: TK-10

Compound: O=c1[nH]c(C23CC4CC(CC(C4)C2)C3)cc2c1c(=O)oc1ccccc12
- GI50 [1]: 29.4 µM (inactive)
- GI50 [2]: 0.366 µM (active)
- GI50 [3]: 4.98 µM (inactive)
- GI50 [4]: 11.2 µM (inactive)
- GI50 [5]: 2.92 µM (inactive)
- GI50 [6]: 3.96 µM (inactive)
- GI50 [7]: 13.8 µM (inactive)
- GI50 [8]: 10 µM (inactive)
- GI50 [9]: 9.57 µM (inactive)
- GI50 [10]: 6 µM (inactive)
- GI50 [11]: 12.8 µM (inactive)
- GI50 [12]: 4.07 µM (inactive)
- GI50 [13]: 10.5 µM (inactive)
- GI50 [14]: 1.61 µM (inactive)
- GI50 [15]: 2.19 µM (inactive)
- GI50 [16]: 2.26 µM (inactive)
- GI50 [17]: 0.32 µM (active)
- GI50 [18]: 13.4 µM (inactive)
- GI50 [19]: 2.7 µM (inactive)
- GI50 [20]: 3.43 µM (inactive)

Compound: CCOc1cc2c(cc1OC(C)=O)C(=O)CC[C@H]1C3CC[C@H](OC(C)=O)[C@@]3(C)CC[C@H]21 (stereo not given in full)
- GI50 [1]: > 100 µM (inactive)
- GI50 [2]: > 100 µM (inactive)
- GI50 [3]: > 100 µM (inactive)
- GI50 [4]: > 100 µM (inactive)
- GI50 [5]: > 100 µM (inactive)
- GI50 [6]: > 100 µM (inactive)
- GI50 [7]: > 100 µM (inactive)
- GI50 [8]: > 100 µM (inactive)
- GI50 [9]: > 100 µM (inactive)
- GI50 [10]: > 100 µM (inactive)
- GI50 [11]: > 100 µM (inactive)
- GI50 [12]: > 100 µM (inactive)
- GI50 [13]: > 100 µM (inactive)
- GI50 [14]: > 100 µM (inactive)
- GI50 [15]: > 100 µM (inactive)
- GI50 [16]: > 100 µM (inactive)
- GI50 [17]: > 100 µM (inactive)
- GI50 [18]: > 100 µM (inactive)
- GI50 [19]: > 100 µM (inactive)
- GI50 [20]: > 100 µM (inactive)
